Assay [1] deals with T1, aldose reductase (Rattus norvegicus, UniProt P07943).
T1 construct: water soluble extracts of rat lenses; from tissue; host or cells: rat lens (water-soluble extract)
The experiment in a line: Inhibition of aldose reductase enzyme activity (Kador and Sharpless method, water soluble extracts of rat lenses). To be noted: for IC50: rat lens extract; for inhibition at 0.02 µM: 2.0 × 10^-8 M. It is filed as biochemical.

Assay [2] concerns polyol increase in the sciatic nerve of galactosemic rats. The experiment in a line: Reduction or inhibition of polyol (galactitol) increase in the sciatic nerve of galactosemic rats. To be noted: for ED50: once a day for eight days, 30% galactose diet, sciatic nerve galactitol. It is filed as in vivo, rat. As to the method:
The compounds according to the invention were tested for their ability to reduce or inhibit polyol increase in the sciatic nerve of galactosemic rats. Rats were fed 30% galactose diet and were administered the compounds at the various doses of 0.4-50 mg/kg once a day for eight days. One day after the final administration (on 9th day), sciatic nerves were removed for galactitol determination. […] The selected control compounds are typical one described in the aforesaid Japanese Unexamined Patent Application Gazette.

Where [3] appears, read: Table 1, 10^-5 M, read-out: Inhibition (%).
Setting [4] is: Table 2, 3.3 × 10^-8 M, read-out: Inhibition (%).
Setting [5] is: Table 2, 10^-7 M, read-out: Inhibition (%).
The mark [6] stands for this setting: Table 2, 10^-8 M, read-out: Inhibition (%).
[7] abbreviates: Rattus norvegicus, 192 h, Table 4, read-out: ED50.
Where [8] appears, read: Table 1, 3.3 × 10^-8 M, read-out: Inhibition (%).
Setting [9] is: Table 1, 10^-7 M, read-out: Inhibition (%).
Setting [10] is: Rattus norvegicus, 192 h, Table 3, read-out: ED50.

Read-outs that look alike come from different tables or passages of the source.

For orientation: inhibition means how much of the control response was suppressed. Broadly, the IC50 is the midpoint of a concentration-inhibition curve. High values mean a need for much substance, low ones inhibition by little substance.

In the case of `O=C1NC(=O)C2(CC(CBr)Oc3ccc(F)cc32)N1` (stereo not drawn) [I, 1-2-Bromomethyl-6-fluoro-2,3-dihydro-spiro[4H-1-benzopyran-4,4'-imidazolidine]-2',5'-dione], in assay [1] (Table 1, 3.3 × 10^-6), 3.3 µM produced 54% inhibition. In addition, in assay [1] (setting [3]), the inhibition at 10 µM worked out at 75%. In addition, the inhibition at 1 µM in assay [1] (Table 1, 10^-6 M) amounted to 31%. In assay [1] (Table 1), this compound displayed a half-maximal inhibitory concentration (IC50) of 2700 nM.

Regarding `NC(=O)C1CC2(NC(=O)NC2=O)c2cc(F)cc(N)c2O1` (racemic) [M, dl-8-Amino-6-fluoro-2,3-dihydro-2',5'-dioxo-spiro[4H-1-benzopyran-4,4'-imidazolidine]-2-carboxamide], in assay [1] (setting [4]), the inhibition at 0.033 µM was found to be 40%. In addition, the inhibition at 0.1 µM in assay [1] (setting [5]) was 74%. In addition, the inhibition at 0.01 µM in assay [1] (setting [6]) worked out at 13%. In assay [1] (Table 2), the concentration for half-maximal inhibition (IC50) worked out at 44 nM.

On to `O=C1NC(=O)C2(CC(CCl)Oc3ccc(F)cc32)N1` (stereo not drawn) [Compound E, d-2-Chloromethyl-6-fluoro-2,3-dihydro-spiro[4H-1-benzopyran-4,4'-imidazolidine]-2',5'-dione], for which the ED50 in assay [2] (setting [7]) is 0.6 mg/kg. For the same compound, the inhibition at 0.033 µM in assay [1] (setting [8]) was found to be 38%. Moreover, the inhibition at 0.1 µM in assay [1] (setting [9]) worked out at 66%. The inhibition at 0.01 µM in assay [1] (Table 1, 10^-8 M, read-out: Inhibition (%)) amounted to 21%. The same compound displayed a half-maximal inhibitory concentration (IC50) in assay [1] (Table 1) of 47 nM.

In turn, `Nc1cc(F)cc2c1OC(CCl)CC21NC(=O)NC1=O` (racemic) [O, dl-8-Amino-2-chloromethyl-6-fluoro-2,3-dihydro-spiro[4H-1-benzopyran-4,4'-imidazolidine]-2',5'-dione] came in with an inhibition at 0.33 µM in assay [1] (Table 2, 3.3 × 10^-7 M) of 68%. Also, the inhibition at 1 µM in assay [1] (Table 2, 10^-6 M) came to 85%. Besides, the inhibition at 0.1 µM in assay [1] (setting [5]) was 38%. Moreover, the IC50 in assay [1] (Table 2) worked out at 170 nM.

Consider `O=C1NC(=O)C2(CCOc3ccc(F)cc32)N1` (stereo not drawn) [Q, d1-6-Fluoro-2,3-dihydro-spiro[4H-1-benzopyran-4,4'-imidazolidine]-2',5'-dione, reference compound], for which the ED50 in assay [2] (setting [7]) is 31.5 mg/kg; in assay [2] (Table 3), 36.6 mg/kg. In assay [1] (Table 1, 3.3 × 10^-6), this compound registered an inhibition at 3.3 µM of 85%. In addition, in assay [1] (Table 1, 3.3 × 10^-7 M), at 0.33 µM the inhibition was 46%. The inhibition at 0.033 µM in assay [1] (setting [8]) worked out at 10%. In assay [1] (Table 1, 10^-6 M), this compound yielded an inhibition at 1 µM of 71%. For the same compound, the inhibition at 0.1 µM in assay [1] (setting [9]) was found to be 17%.

For the compound `O=C1NC(=O)C2(CC(CCl)Oc3ccc(F)cc32)N1` (stereo not drawn) [F, 1-2-Chloromethyl-6-fluoro-2,3-dihydro-spiro[4H-1-benzopyran-4,4'-imidazolidine]-2',5'-dione], the inhibition at 3.3 µM in assay [1] (Table 1, 3.3 × 10^-6) is 52%. Further, the inhibition at 10 µM in assay [1] (setting [3]) stood at 74%. The compound also displayed an inhibition at 1 µM in assay [1] (Table 1, 10^-6 M) of 28%. For the same compound, the IC50 in assay [1] (Table 1) turned out to be 2900 nM.

On to `NC(=O)C1CC2(NC(=O)NC2=O)c2cc(F)cc([N+](=O)[O-])c2O1` (racemic) [L, dl-6-Fluoro-2,3-dihydro-8-nitro-2',5'-dioxo-spiro[4H-1-benzopyran-4,4'-imidazolidine]-2-carboxamide], for which the inhibition at 0.033 µM in assay [1] (setting [4]) came to 50%. Moreover, the inhibition at 0.1 µM in assay [1] (setting [5]) turned out to be 88%. The inhibition at 0.01 µM in assay [1] (setting [6]) is 15%. Moreover, the IC50 in assay [1] (Table 2) turned out to be 31 nM.

`NC(=O)[C@H]1CC2(NC(=O)NC2=O)c2cc(F)cc([N+](=O)[O-])c2O1` (stereo partly drawn) [J, d-6-Fluoro-2,3-dihydro-8-nitro-2',5'-dioxo-spiro[4H-1-benzopyran-4,4'-imidazolidine]-2-carboxamide]: in assay [1] (Table 2), at 0.02 µM the inhibition was 69% and the IC50 worked out at 14 nM. Moreover, in assay [1] (setting [4]), the inhibition at 0.033 µM is 82%. Besides, the inhibition at 0.01 µM in assay [1] (setting [6]) turned out to be 35%.

Consider `CC(=O)Nc1cc(F)cc2c1O[C@@H](C(N)=O)CC21NC(=O)NC1=O` (stereo partly drawn) [P, d-8-Acetamido-6-fluoro-2,3-dihydro-2',5'-dioxo-spiro[4H-1-benzopyran-4,4'-imidazolidine]-2-carboxamide], for which, in assay [1] (Table 2), the inhibition at 0.02 µM was 56% and the half-maximal inhibitory concentration (IC50) stood at 18 nM. Moreover, in assay [1] (setting [4]), the inhibition at 0.033 µM worked out at 69%. Also, in assay [1] (setting [6]), the inhibition at 0.01 µM is 30%.

As to `O=C1NC(=O)C2(CCOc3ccc(F)cc32)N1` (stereo not drawn) [S, 1-6-Fluoro-2,3-dihydro-spiro[4H-1-benzopyran-4,4'-imidazolidine]-2',5'-dione, reference compound], the inhibition at 10 µM in assay [1] (setting [3]) was found to be 32%.

For the compound `NC(=O)[C@H]1CC2(NC(=O)NC2=O)c2cc(F)ccc2O1` (stereo partly drawn) [B, d-6-Fluoro-2,3-dihydro-2',5'-dioxo-spiro[4H-1-benzopyran-4,4'-imidazolidine]-2-carboxamide], the ED50 in assay [2] (setting [10]) is 1.3 mg/kg. In assay [1], this compound came in with an inhibition at 0.01 µM of 39%, an inhibition at 0.033 µM of 80% and an inhibition at 0.1 µM of 93%.

`O=C1NC(=O)C2(CCOc3ccc(F)cc32)N1` (stereo not drawn) [R, d-6-Fluoro-2,3-dihydro-spiro[4H-1-benzopyran-4,4'-imidazolidine]-2',5'-dione, reference compound] had an ED50 in assay [2] (Table 3) of 18.0 mg/kg. For the same compound, the “Inhibition (%)” value in assay [1] (Table 1, 3.3 × 10^-6) was found to be 88%; in assay [1] (Table 1, 3.3 × 10^-7 M), 61%; in assay [1] (Table 1, 3.3 × 10^-8 M), 15%; in assay [1] (Table 1, 10^-6 M), 80%; in assay [1] (Table 1, 10^-7 M), 34%. In assay [1] (Table 2, 3.3 × 10^-7 M), this compound came in with an inhibition at 0.33 µM of 59%. Further, in assay [1] (setting [4]), the inhibition at 0.033 µM turned out to be 24%. The compound further returned an inhibition at 1 µM in assay [1] (Table 2, 10^-6 M) of 76%. Moreover, in assay [1] (setting [5]), the inhibition at 0.1 µM is 29%.

For `O=C1NC(=O)C2(CC(CBr)Oc3ccc(F)cc32)N1` (stereo not drawn) [H, d-2-Bromomethyl-6-fluoro-2,3-dihydro-spiro[4H-1-benzopyran-4,4'-imidazolidine]-2',5'-dione], in assay [2] (setting [7]), the ED50 amounted to 2.2 mg/kg. Moreover, testing at 0.33 µM in assay [1] (Table 1, 3.3 × 10^-7 M) gave an inhibition of 82%. Besides, in assay [1] (setting [8]), the inhibition at 0.033 µM came to 35%. In addition, the inhibition at 0.1 µM in assay [1] (setting [9]) amounted to 59%. Also, the IC50 in assay [1] (Table 1) worked out at 68 nM.

Consider `NC(=O)C1CC2(NC(=O)NC2=O)c2cc(F)ccc2O1` (racemic) [A, dl-6-Fluoro-2,3-dihydro-2',5'-dioxo-spiro[4H-1-benzopyran-4,4'-imidazolidine]-2-carboxamide], for which the ED50 in assay [2] (setting [10]) is 3.3 mg/kg. In assay [1], the inhibition at 0.01 µM was 21%, the inhibition at 0.033 µM was 51% and testing at 0.1 µM gave an inhibition of 80%.

As to `NC(=O)C1CC2(NC(=O)NC2=O)c2cc(F)ccc2O1` (stereo not drawn) [C, 1-6-Fluoro-2,3-dihydro-2',5'-dioxo-spiro[4H-1-benzopyran-4,4'-imidazolidine]-2-carboxamide], testing at 10 µM in assay [1] gave an inhibition of 27%.

Consider `O=C1NC(=O)C2(CC(C(=O)O)Oc3ccc(F)cc32)N1` (racemic) [Example 1, dl-6-fluoro-2,3-dihydro-2',5'-dioxo-spiro[4H-1-benzopyran-4,4'-imidazolidine]-2-carboxylic acid], for which the “potency of the major diastereomer vs minor diastereomer in inhibition of polyol increase” value in assay [2] (sciatic nerve of galactosemic rats) is reported as “higher than that of the minor diastereomer”.

`O=C1NC(=O)C2(CC(CCl)Oc3ccc(F)cc32)N1` (racemic) [D, dl-2-Chloromethyl-6-fluoro-2,3-dihydro-spiro[4H-1-benzopyran-4,4'-imidazolidine]-2',5'-dione]: in assay [2] (setting [7]), the ED50 stood at 1.3 mg/kg. Besides, the inhibition at 0.33 µM in assay [1] (Table 1, 3.3 × 10^-7 M) was 78%. Further, the inhibition at 0.033 µM in assay [1] (setting [8]) amounted to 28%. Besides, the inhibition at 0.1 µM in assay [1] (setting [9]) was 53%. The compound further registered a half-maximal inhibitory concentration (IC50) in assay [1] (Table 1) of 90 nM.

Take `O=C1NC(=O)C2(CC(CBr)Oc3ccc(F)cc32)N1` (racemic) [G, dl-2-Bromomethyl-6-fluoro-2,3-dihydro-spiro[4H-1-benzopyran-4,4'-imidazolidine]-2',5'-dione]: the ED50 in assay [2] (setting [7]) amounted to 7.2 mg/kg. In addition, the inhibition at 0.33 µM in assay [1] (Table 1, 3.3 × 10^-7 M) worked out at 70%. For the same compound, in assay [1] (setting [8]), the inhibition at 0.033 µM was 22%. In assay [1] (setting [9]), the inhibition at 0.1 µM was found to be 42%. Moreover, in assay [1] (Table 1), the IC50 is 130 nM.

`O=C1NC(=O)C2(CC(CCl)Oc3c([N+](=O)[O-])cc(F)cc32)N1` (racemic) [N, dl-2-Chloromethyl-6-fluoro-2,3-dihydro-8-nitro-spiro[4H-1-benzopyran-4,4'-imidazolidine]-2',5'-dione]: the inhibition at 0.33 µM in assay [1] (Table 2, 3.3 × 10^-7 M) is 81%. Besides, the inhibition at 0.033 µM in assay [1] (setting [4]) came to 30%. In assay [1] (setting [5]), the inhibition at 0.1 µM amounted to 59%. This compound also displayed an IC50 in assay [1] (Table 2) of 76 nM.

As to `NC(=O)[C@H]1CC2(NC(=O)NC2=O)c2cc(F)cc(N)c2O1` (stereo partly drawn) [K, d-8-Amino-6-fluoro-2,3-dihydro-2',5'-dioxo-spiro[4H-1-benzopyran-4,4'-imidazolidine]-2-carboxamide], the inhibition at 0.033 µM in assay [1] (setting [4]) worked out at 60%. For the same compound, in assay [1] (setting [5]), the inhibition at 0.1 µM was 70%. For the same compound, the inhibition at 0.01 µM in assay [1] (setting [6]) stood at 27%. Further, half-maximal inhibition in assay [1] (Table 2) (IC50) was put at 25 nM.

Values taken from patent publication US5001240A, “Process for preparing optically active hydantoins” (Sanwa Kagaku Kenkyyusho Co., Ltd., priority 1986, dated 1991).
